# Experimental data from patent US10883963B2, “Electrochemical measurement using phenylenediamine derivative” (SEIKAGAKU CORPORATION, priority 2016, dated 2021).
# Where two headings read alike, the source gives them in different places.
# Experiments:
# [1] = Stability of labeling substances and substrates in 0.1 M HEPES at 37° C., cyclic voltammetric measurement; format: physicochemical; conditions: for relative value of height of oxidation peak in voltammogram of free molecule (0 hours = 100%): 1.0 mM in 0.1 M HEPES pH 7.8, 37° C., light-shielded; for change of detected value in 2 hours after preparation: 0.1 M HEPES pH 7.8, 37° C.
# Procedure: The labeling substances (pAP, MPDD, and DMPD) and the substrates for measurement (LGR-pAP, LGR-MPDD, LGR-DMPD) were dissolved into 0.1 M HEPES (pH 7.8) and prepared to be 1 mM, and were left to stand for 1 to 24 hours in an incubator at 37° C. Thereafter, a test was performed according to the following procedures.
# As an electrochemical measurement method, cyclic voltammetry and a potential step chronoamperometric method were used. As a measuring device, a working electrode, a reference electrode, and a counter electrode, those described in <Measurement Conditions> below were used. In each measurement, the working electrode, the reference electrode, and the counter electrode were inserted in a solution, and respectively connected to connectors of a potentiostat for a working electrode, a reference electrode, and a counter electrode. After each measurement, the electrode surface of the working electrode was polished with […] polishing alumina, and cleaned with ultrapure water. In the cyclic voltammetric measurement, potential scanning was performed by setting an initial potential and a finish potential to 0 V, a first turnover potential to 0.4 V (0.6 V for LGR-pAP and LGR-DMPD, 0.7 V for LGR-MPDD), and a second turnover potential to −0.2 V, and the current was monitored. In the potential step chronoamperometric measurement, after 0.0 V was applied to the working electrode for 10 seconds, the potential was momentarily changed to 0.3 V, and the current was monitored for 35 seconds.
# 50 ml of test solutions (1.0 mM) of the respective substrates (LGR-pAP, LGR-MPDD, LGR-DMPD) and free molecules (pAP, MPDD, DMPD) were prepared by using 0.1 M HEPES (pH=7.8), put in a disposable 50 ml centrifuge tube (manufactured by IWAKI), and left to stand at 37° C. under light-shielded conditions. When a predetermined time (0.5 h, 1 h, 2 h, 4 h, and 24 h) elapsed, 5 ml was sampled from the test solution and subjected to cyclic voltammetric measurement. MPDD was measured when 6 hours and 8 hours elapsed as well. By using a test solution just after preparation, a measurement at a predetermined time of 0 hours was performed.
# [2] = Evaluation of quantitative performance: cyclic voltammetry and chronoamperometry of substrate / free molecule mixed solutions; format: physicochemical; conditions: mixed solution of substrate and free molecule, 0.1 M HEPES pH 7.8, vs. Ag/AgCl
# Excerpt: As a result of performing a cyclic voltammetric measurement in which the mixture ratio of a substrate and free molecule (labeling substance) was varied in stages, in a voltammogram of a mixed solution of LGR-pAP and pAP, two oxidation peaks at 0.15 V and 0.49 V were confirmed. From individual voltammograms of a substrate molecule and a free molecule, the peak near 0.49 V is considered to be derived from oxidation of LGR-pAP, and the peak near 0.15 V is considered to be derived from oxidation of pAP. Similarly, from a voltammogram of a mixed solution of LGR-DMPD and DMPD, an oxidation peak derived from LGR-DMPD was confirmed near 0.45V, and an oxidation peak derived from DMPD was confirmed near 0.19 V. Further, from a voltammogram of a mixed solution of LGR-MPDD and MPDD, an oxidation peak derived from LGR-MPDD was confirmed near 0.46 V, and an oxidation peak derived from MPDD was confirmed near 0.14 V. Further, when using any substrate, an oxidation peak current value of free molecules increased as the percentage of a free molecule increased. From these facts, it was considered that a concentration of free molecules in each mixed solution could be amperometrically quantified at a potential of 0.3 V vs. Ag/AgCl. Next, in each mixed solution, chronoamperometry was performed. […]
# As an electrochemical measurement method, cyclic voltammetry and a potential step chronoamperometric method were used. […] In the cyclic voltammetric measurement, potential scanning was performed by setting an initial potential and a finish potential to 0 V, a first turnover potential to 0.4 V (0.6 V for LGR-pAP and LGR-DMPD, 0.7 V for LGR-MPDD), and a second turnover potential to −0.2 V, and the current was monitored. In the potential step chronoamperometric measurement, after 0.0 V was applied to the working electrode for 10 seconds, the potential was momentarily changed to 0.3 V, and the current was monitored for 35 seconds. […]
# [3] = tested on: Limulus reagent Endospecy ES-24S; test: Limulus test (2): endotoxin measurement by voltammetric method using labeled substrates; format: biochemical; conditions: substrate for measurement 0.5 mM
# Procedure: Limulus tests using the substrates for measurement acquired in <Reference Example 1> described above were performed, and measurements of endotoxin were performed by a voltammetric method. The test procedures are shown below.
# The same conditions as those described in <Limulus Reaction> of <Example 2> described above were applied except that a cyclic voltammetric measurement was performed instead of the chronoamperometric measurement.
# The same conditions as described in <Measurement Conditions> of <Example 1> above were applied.
# [4] = tested on: Limulus reagent Endospecy ES-24S; conditions: FIG. 8 of Patent Literature 1; cited from earlier work
# [5] = 1 mM; FIG. 4 of Patent Literature 1; cited from earlier work
# [6] = 0 hours (just after preparation)
SMILES,"relative value of height of oxidation peak in voltammogram of free molecule (0 hours = 100%) [1, 6] [%]",relative value of height of oxidation peak in voltammogram of free molecule (0 hours = 100%) ([1]; 0.5 h) [%],relative value of height of oxidation peak in voltammogram of free molecule (0 hours = 100%) ([1]; 1 h) [%],relative value of height of oxidation peak in voltammogram of free molecule (0 hours = 100%) ([1]; 2 h) [%],change of detected value in 2 hours after preparation [1],oxidation peak potential in cyclic voltammogram [2] [V],Measured value B: maximum value of oxidation peak current value in Limulus test with substrate (labeling substance bonded to LGR) [3] [μA],Measured value B: maximum value of oxidation peak current value in Limulus test with substrate (labeling substance bonded to LGR) [4] [μA],oxidation peak current value of labeling substance itself [5]
"Nc1ccc(O)cc1 [pAP, P-aminophenol, reference compound]",100.0,94.2,95.0,83.0,showed a tendency to successively decrease,~0.15,–,–,–
"CNc1ccc(N)cc1 [MPDD, N-methyl-p-phenylenediamine]",100.0,102.4,102.3,101.0,no decrease,~0.14,0.60,–,–
"CN(C)c1ccc(N)cc1 [DMPD, N, N-dimethyl-p-phenylenediamine]",100.0,95.3,94.3,84.5,showed a tendency to successively decrease,~0.19,0.31,–,–
"COc1ccc(N)cc1 [pMA, para methoxyaniline]",–,–,–,–,–,–,–,0.28,approximately 3.0 μA
